Results reported in US11254654B2, “Heterochromatin gene repression inhibitors” (The University of North Carolina at Chapel Hill, priority 2017, dated 2022).
Structures can show the parent of a compound that is named as a salt.

What was measured:
CiA:Oct4 N118/N163 cells = assay: Minus rapamycin counter screen for toxicity and cell differentiation; assay type: cell-based; settings: 10 μM compound, no rapamycin, 48 hrs
Method: Day 0, CiA:Oct4 N118/163 cells were grown in ES media and seeded at a density of 10,000 cells per well (100,000 cells/mL) into gelatin coated 96 well plates. Day 1, media was aspirated and replaced with […] fresh ES media containing +/−6 nM rapamycin and 10 μM dilution of compounds from the EpiG compound set. Day 2, 100 μL fresh ES media containing +/−6 nM rapamycin and 10 μM dilution of compounds from the EpiG compound set was added as on Day 1. Day 3, the media was aspirated out of the wells and the cells were washed with PBS and trypsinized using 0.25% trypsin-EDTA. Trypsin was quenched with serum. Cells were resuspended by pipetting to prepare the plates for flow cytometry analysis.
Flow cytometry was performed using an Intellicyt iQue Screener and analyzed with FlowJo software. Cell populations were gated based on forward and side scatter area. Single cell populations were isolated using forward scatter area by forward scatter height gating. Dead or dying cells that equally fluoresced in the GFP and APC channels upon excitation with 488 nm laser were omitted as autofluorescent, and the remaining cells were gated into GFP (−) and GFP (+) populations. […] Statistics were performed using standard T-test analysis.
The CiA:Oct4 N118/N163 recruitment system also functions as an internal counter screen for toxicity and cell differentiation in the absence of rapamycin recruited csHP1α. […]

H3K9me2/3 = assay: Global H3K9me2/3 western blot of acid extracted histones; assay type: cell-based, mouse; settings: 10 μM compound, 48 hours
Method: CiA:Oct4 N118/N163 cells were grown to confluency as described above in standard gelatin coated 6 well tissue culture plates. Media was aspirated and the cells were washed with 2 mL of PBS. The PBS was removed and the cells were trypsinized with 0.25% trypsin-EDTA until a single cell suspension was generated. Cells were transferred to a conical tube and pelleted at 300×g for 5 min. Supernatant was removed and the cells were washed with PBS and centrifuged at 300×g for 5 min. The PBS supernatant was removed. Nuclei were collected from the cells by resuspending the pellet in lysis buffer containing (50 mM HEPES pH 8.0, 140 mM NaCl, 1 mM EDTA, 10% glycerol, 0.5% NP40, 0.25% Triton X100). Cells were incubated in lysis buffer on ice for 10 min. Nuclei were pelleted at 1200×g for 5 min at 4° C. and the supernatant was removed. […]
SDS-PAGE sample gels were transferred to Millipore Immobilon-FL PVDF membranes either by semi-wet or wet transfer according to Bio-Rad procedure. […] Western blot membranes were imaged using the Licor Odyssey scanner and data analyzed using Image Studio v5.2 software.
HP1 gene repression and silencing is mediated by H3K9me3 deposition. […] Total extracted histone proteins were quantified by Bradford Coomassie and equal total protein was loaded per sample for gel electrophoresis and subsequent western blot analysis. […]

TC1 ES cells = assay: Whole cell histone modification levels, Western blot densitometry; assay type: cell-based; settings: 48 hrs with compound, normalized over total Histone H4
Method: The ability to reduce global H3K9-me2 and -me3 levels with the novel HP1 inhibitors was previously examined (see FIG. 20). […] Oct4-GFP will be measured by flow cytometry, H3K9me3 enrichment by ChIP, and DNA methylation levels by bisulfite sequencing at 2, 4, and 6 days post RA addition output measurements. Expression and chromatin modifications will also be examined at other RA regulated genes such as […] using GAPDH as a control.
Referring to FIG. 20, TC1 ES cells were incubated 48 hrs with compound. Histones marks were measured by Western blot densitometry with the indicated antibody. The results were normalized over the total Histone H4 as a percentage of untreated controls.

SMILES: COc1cc2nc(N3CCCC3)nc(N[C@H]3CCCNC3)c2cc1OC [compound 1, (S)-6,7-Dimethoxy-N-(Piperidin-3-yl)-2-(Pyrrolidin-1-yl)Quinazolin-4-Amine Trifluoroacetic Acid Salt]
- GFP positive population levels without csHP1α recruitment (CiA:Oct4 N118/N163 cells): did not decrease GFP positive population levels
- Global H3K9me2/3 levels normalized to histone H4 (H3K9me2/3): roughly equivalent decreases in H3K9 methylation
- Bulk di- and tri-H3K9 methylation (TC1 ES cells): significantly block
